In patent publication US20180369186A1, “METHOD FOR MODULATING AUTOPHAGY AND APPLICATIONS THEREOF” (JAWAHARLAL NEHRU CENTRE FOR ADVANCED SCIENTIFIC RESEARCH, priority 2015, published 2018):

Legend:
aminopeptidase = test: Protease protection assay with aminopeptidase; type: cell-based, S. cerevisiae; details: starvation
Procedure: To elucidate the step of action of Bay11, a protease protection assay is performed using aminopeptidase as a marker, which is also a substrate for starvation-induced autophagy. Untreated cells in presence of proteinase K show both the precursor as well as the matured form due to the autophagosome-sequestered membrane-protected cargo and the cytosolic free form, respectively (FIGS. 22D and 22E). […] Combined treatment with Proteinase K and triton X-100 results in conversion of all the precursor form to the matured form in both treated and untreated groups.

p62 = p62 co-localization with mRFP-MAP1LC3B in HeLa cells; type: cell-based, human
Procedure: Appropriate number of cells are plated on top of coverslips placed in 65 mm cell culture dishes for transfection. Transfected cells are divided into different treatment groups. Post treatment, cells are washed with PBS and fixed in 4% paraformaldehyde and permeabilized using 0.25% Triton X-100, Overnight incubation with Anti-p62/SQSTM1 (rabbit polyclonal, #PM045), Anti-EEA1 (rabbit polyclonal, CST #3288) is done at 4° C. Excess antibody is washed with PBS and coverslips are incubated with Atto-633 (goat anti-rabbit IgG, Sigma #41176). The coverslips are mounted with […] antifade reagent (H-1000/H-1200, Vector laboratories). Imaging for HeLa cells is carried out using Delta vision microscope (Olympus 60×/1.42, Plan ApoN, excitation and emission filter Cy5, FITC and TRITC, polychroic Quad).
ImageJ software (NIH) is used to calculate the mean intensity. Images are opened using the split channel plugin. Co-localization plugin in the analysis tools is used to obtain the colocalized area between two channels as a separate window. The intensity is calculated using the measure plugin in analysis tools.

Cc1ccc(S(=O)(=O)/C=C/C#N)cc1 [Bay11, 3-[(4-methylphenyl)sulfonyl]-(2E)-propenenitrile]
form of aminopeptidase upon proteinase K treatment (aminopeptidase): only the mature form of aminopeptidase
p62 accumulation relative to mRFP-MAP1LC3B-positive compartments (p62): outside
